{
  "source": "ChEMBL document CHEMBL1155711",
  "about": "“Bidentatoside I, a new triterpene saponin from Achyranthes bidentata” (J Nat Prod, 2001)",
  "tested_on": "HT-29",
  "assay": "Potentiation of cisplatin-induced cytotoxicity in human HT-29 cells",
  "assay_type": "functional, cell-based",
  "note": "Calls of active or inactive are those of the source. No cut-off for these calls is given here.",
  "data": [
    {"smiles": "CC1(C)CC[C@]2(C(=O)O[C@@H]3O[C@H](CO)[C@@H](O)[C@H](O)[C@H]3O)CC[C@]3(C)C(=CC[C@@H]4[C@@]5(C)CC[C@H](O[C@@H]6O[C@H](C(=O)O)[C@@H](O)[C@@H]7OC(O)(C(=O)O)C(OCC(=O)O)O[C@@H]67)C(C)(C)[C@@H]5CC[C@]43C)[C@@H]2C1", "note": "(stereo partly specified)", "values": [
      {"measurement": "Activity", "value": "inactive"}
    ]}
  ]
}
